Molecular target: T1, GAL4-PPARγ fusion protein (Mus musculus, UniProt P37238)
T1 construct: expressed in transfected cells; host or cells: CV-1 cells
T1 sequence (P37238 163-475 isoform P37238-2): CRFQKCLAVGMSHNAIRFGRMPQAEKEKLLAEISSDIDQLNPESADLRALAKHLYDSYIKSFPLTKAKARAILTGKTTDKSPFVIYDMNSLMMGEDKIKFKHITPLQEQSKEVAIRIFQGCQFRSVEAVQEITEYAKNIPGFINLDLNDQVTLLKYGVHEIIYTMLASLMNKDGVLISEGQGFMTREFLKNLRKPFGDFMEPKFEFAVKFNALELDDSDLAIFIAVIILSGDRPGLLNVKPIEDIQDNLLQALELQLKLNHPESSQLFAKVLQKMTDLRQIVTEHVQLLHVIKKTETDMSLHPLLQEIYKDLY
Experiment: Screening assay for PPAR-γ antagonists (GAL4-PPARγ luciferase reporter in CV-1 cells)
Format: cell-based
Settings: CV-1 cells co-transfected with CMX-GAL-PPARγ and pTK-MH100x4-LUC; test compound alone or with agonist 200 nM BRL 49653; FIG. 1
Protocol: Effector plasmid, reporter plasmid, and β-galactosidase control plasmid are co-transfected into CV-1 cells at a ratio of about 1:3:5, using a liposome-mediated method, employing N-{2-(2,3)-dioleoyloxy)propyl-N,N,N-trimethyl ammonium methyl sulfate} (i.e., DOTAP, Boehlinger Mannheim) according to the manufacturer's instructions in Dulbecco's modified Eagle's medium (DMEM) with 10% delipidated hormone-depleted fetal calf serum. After about 2-3 hours, the cells are washed with DMEM and agonist (200 nM BRL 49653) and/or an appropriate test compound (LY 171883; see FIG. 1) is added to the media. After 24-48 hours of incubation, the cells are rinsed with phosphate buffered saline (pH 7.2) and lysed. Aliquots are assayed for luciferase and β-galactosidase activity. Luciferase activity is normalized to optical density units of β-galactosidase per minute of incubation.
Thus, CV-1 cells are co-transfected with CMX-GAL-PPARγ and pTK-MH100x4-LUC at a ratio of about 100 ng of receptor-encoding DNA per 10^5 cells. The usual amounts of DNA per 10^5 cells are 100 ng of CMX-GAL-PPARγ, 300 ng of pTK-MH100x4-LUC, and 500 ng of CMX-βGAL. Typically, transfections are performed in triplicate. The plates are then incubated for 2-3 hours at 37° C.
The cells are washed with fresh medium. […]
The data are expressed as relative light units (RLUs) per O.D. unit of β-galactosidase per minute. […]

## CCCc1c(OCCCCc2nnn[nH]2)ccc(C(C)=O)c1O [LY 171883]
  relative reporter activity (functional activity at PPARγ): functional antagonist of PPARγ
